{
  "source": "patent US6972111B1",
  "about": "“Rosin amine anti-fouling agents” (Bayer Aktiengesellschaft, priority 1999, dated 2005)",
  "tested_on": "cyprid larvae of the barnacle Balanus amphitrite",
  "test": "Settlement assay of cyprid larvae of the barnacle Balanus amphitrite",
  "format": "in vivo",
  "details": "cyprid larvae in seawater test solution, 27° C.±2; Spearman-Kärber method",
  "experimental": "The rate of settlement of laboratory reared cyprid larvae of the barnacle Balanus amphitrite was determined for testing the activity of candidate anti-fouling compounds. Settlement Assay Tests are carried out in four replicates in sterile polystyrene multi well plates. Between 25 and 40 cyprid larvae are injected in the dishes containing either 2 ml of test solution (see below), solvent control or a positive control (Dichloro-n-octyl-isothiazolinone). Dishes are incubated for 24 h at a temperature of 27° C.±2. After incubation the cyprids are screened for signs of toxicity. Larvae are classified in three categories: A) alive and swimming; B) alive but not active; C) dead. The test is terminated by addition of a drop of 20% formaldehyde and the numbers of settled and non-settled larvae are counted. Settlement is evaluated as follows: 1) Non settled: not attached free swimming cyprids; 2) settled cyprids: attached, but not metamorphosed cyprids; 3) barnacles: attached juvenile barnacles. Categories 2 and 3 are considered to be settled. Percentage settlement in test solution is compared with controls. Estimates of the median effect concentration (EC-50) after […]. are calculated using the Spearman-Kärber method. All seawater used is of natural origin and filtered unto 0.2 micron. […]",
  "data": [
    {"compound": "CCCCCCCCn1sc(Cl)c(Cl)c1=O", "note": "[reference*, 4,5-dichloro-n-octylisothiazolinone]", "values": [
      {"measurement": "EC50 for settlement inhibition in ppm", "value": 0.37, "unit": "ppm"}
    ]}
  ]
}
